Test results published in the NIST ThermoML archive (doi:10.1016/j.jct.2013.11.027).
Values joined by “and” are separate entries in the source; they are usually repeats but may differ in a detail not shown here. Identical values can stand only once. Numbers after ± are expanded uncertainties.

Tests used:
[1] = refractive index (Na D-line) (dimensionless); details: 101.33 kPa, Liquid, Standard Abbe refractometry
[2] = 101.33 kPa, Liquid; for speed of sound: Sing-around technique in a fixed-path interferometer; for mass density: Vibrating tube method
[3] = refractive index (Na D-line) (dimensionless); xn = mol fraction of the nth substance listed; details: 101 kPa, Liquid, Standard Abbe refractometry, x2 = 0
[4] = xn = mol fraction of the nth substance listed; details: 101 kPa, Liquid, x2 = 0; for speed of sound: Sing-around technique in a fixed-path interferometer; for mass density: Vibrating tube method

Row | SMILES | refractive index ([1]; 293.15 K) | refractive index ([1]; 298.15 K) | refractive index ([1]; 303.15 K) | refractive index ([1]; 308.15 K) | refractive index ([1]; 313.15 K) | refractive index ([1]; 318.15 K) | refractive index ([1]; 323.15 K) | speed of sound ([2]; 293.15 K) [m/s] | mass density ([2]; 293.15 K) [kg/m3] | speed of sound ([2]; 298.15 K) [m/s] | mass density ([2]; 298.15 K) | speed of sound ([2]; 303.15 K) [m/s] | mass density ([2]; 303.15 K) [kg/m3] | speed of sound ([2]; 308.15 K) [m/s] | mass density ([2]; 308.15 K) | speed of sound ([2]; 313.15 K) [m/s] | mass density ([2]; 313.15 K) [kg/m3] | speed of sound ([2]; 318.15 K) [m/s] | mass density ([2]; 318.15 K) | speed of sound ([2]; 323.15 K) [m/s] | further results
1 | C1COCCO1 [1,4-dioxane] | 1.42215 ± 0.00037 | 1.41967 ± 0.00037 | 1.41725 ± 0.00037 | 1.4148 ± 0.00037 | 1.41236 ± 0.00037 | 1.40993 ± 0.00037 | 1.40749 ± 0.00037 | 1367.2 ± 1.2 | 1033.5 ± 0.12 | 1345 ± 1.2 | 1027.85 ± 0.12 kg/m3 | 1323 ± 1.2 | 1022.19 ± 0.12 | 1301.1 ± 1.2 | 1016.52 ± 0.12 kg/m3 | 1279.4 ± 1.2 | 1010.83 ± 0.12 | 1257.8 ± 1.2 | 1005.12 ± 0.12 kg/m3 | 1236.3 ± 1.2 | mass density ([2]; 323.15 K): 999.4 ± 0.12 kg/m3
2 | C1COCCO1 [1,4-dioxane] + CCCCCCCC[n+]1ccn(C)c1.F[B-](F)(F)F |  |  |  |  |  |  |  |  |  |  |  |  |  |  |  |  |  |  |  |  | refractive index ([3]; 298.15 K): 1.41967 ± 0.00037; refractive index ([3]; 308.15 K): 1.4148 ± 0.00037; refractive index ([3]; 318.15 K): 1.40993 ± 0.00037; speed of sound ([4]; 298.15 K): 1345 ± 1.2 m/s; mass density ([4]; 298.15 K): 1027.85 ± 0.12 kg/m3; speed of sound ([4]; 308.15 K): 1301.1 ± 1.2 m/s; mass density ([4]; 308.15 K): 1016.52 ± 0.12 kg/m3; speed of sound ([4]; 318.15 K): 1257.8 ± 1.2 m/s; mass density ([4]; 318.15 K): 1005.12 ± 0.12 kg/m3
3 | C1COCCO1 [1,4-dioxane] + CCCCCCn1cc[n+](C)c1.F[B-](F)(F)F |  |  |  |  |  |  |  |  |  |  |  |  |  |  |  |  |  |  |  |  | refractive index ([3]; 298.15 K): 1.41967 ± 0.00037; refractive index ([3]; 308.15 K): 1.4148 ± 0.00037; refractive index ([3]; 318.15 K): 1.40993 ± 0.00037; speed of sound ([4]; 298.15 K): 1345 ± 1.2 m/s; mass density ([4]; 298.15 K): 1027.85 ± 0.12 kg/m3; speed of sound ([4]; 308.15 K): 1301.1 ± 1.2 m/s; mass density ([4]; 308.15 K): 1016.52 ± 0.12 kg/m3; speed of sound ([4]; 318.15 K): 1257.8 ± 1.2 m/s; mass density ([4]; 318.15 K): 1005.12 ± 0.12 kg/m3
4 | CCCCCCn1cc[n+](C)c1.F[B-](F)(F)F [1-hexyl-3-methylimidazolium tetrafluoroborate] | 1.43308 ± 0.00053 | 1.43167 ± 0.00053 | 1.43029 ± 0.00053 | 1.4289 ± 0.00053 | 1.42752 ± 0.00053 | 1.42612 ± 0.00053 | 1.42474 ± 0.00053 | 1509.3 ± 2.3 | 1148.76 ± 1.1 | 1496.7 ± 2.3 | 1145.11 ± 1.1 kg/m3 | 1484.3 ± 2.3 | 1141.47 ± 1.1 | 1472 ± 2.3 | 1137.71 ± 1.1 kg/m3 | 1459.8 ± 2.3 | 1134.09 ± 1.1 | 1447.7 ± 2.3 | 1130.49 ± 1.1 kg/m3 | 1435.7 ± 2.3 | mass density ([2]; 323.15 K): 1126.89 ± 1.1 kg/m3
5 | CCCCCCCC[n+]1ccn(C)c1.F[B-](F)(F)F [1-methyl-3-octylimidazolium tetrafluoroborate] | 1.43389 ± 0.0017 | 1.43296 ± 0.0017 | 1.43192 ± 0.0017 | 1.42939 ± 0.0017 | 1.42772 ± 0.0017 | 1.42684 ± 0.0017 | 1.42696 ± 0.0017 | 1495.5 ± 2.3 | 1100.59 ± 1.1 | 1481.1 ± 2.3 | 1097.61 ± 1 kg/m3 | 1467.3 ± 2.3 | 1094.07 ± 1 | 1453.9 ± 2.3 | 1090.9 ± 1 kg/m3 | 1440.9 ± 2.3 | 1087.41 ± 1 | 1428.2 ± 2.3 | 1084.17 ± 1 kg/m3 | 1414.7 ± 2.3 | mass density ([2]; 323.15 K): 1080.75 ± 1 kg/m3
6 | C1CCOC1 [tetrahydrofuran] | 1.40696 ± 0.00039 | 1.4042 ± 0.00039 | 1.40157 ± 0.00039 | 1.39885 ± 0.00039 | 1.39623 ± 0.00039 | 1.39349 ± 0.00039 | 1.39083 ± 0.00039 | 1304.6 ± 1.4 | 888.69 ± 0.17 | 1280.5 ± 1.4 | 882.21 ± 0.17 kg/m3 and 882.209 ± 0.17 kg/m3 | 1256.4 ± 1.4 | 877.7 ± 0.17 | 1232.5 ± 1.4 | 872.16 ± 0.17 kg/m3 and 871.159 ± 0.17 kg/m3 | 1208.8 ± 1.4 | 866.58 ± 0.18 | 1185.2 ± 1.4 | 860.96 ± 0.18 kg/m3 and 859.955 ± 0.18 kg/m3 | 1161.7 ± 1.3 | mass density ([2]; 323.15 K): 855.29 ± 0.18 kg/m3
7 | C1CCOC1 [tetrahydrofuran] + CCCCCCCC[n+]1ccn(C)c1.F[B-](F)(F)F |  |  |  |  |  |  |  |  |  |  |  |  |  |  |  |  |  |  |  |  | refractive index ([3]; 298.15 K): 1.4042 ± 0.00039; refractive index ([3]; 308.15 K): 1.39885 ± 0.00039; refractive index ([3]; 318.15 K): 1.39349 ± 0.00039; speed of sound ([4]; 298.15 K): 1280.5 ± 1.4 m/s; mass density ([4]; 298.15 K): 882.209 ± 0.17 kg/m3; speed of sound ([4]; 308.15 K): 1232.5 ± 1.4 m/s; mass density ([4]; 308.15 K): 871.159 ± 0.17 kg/m3; speed of sound ([4]; 318.15 K): 1185.2 ± 1.4 m/s; mass density ([4]; 318.15 K): 859.955 ± 0.18 kg/m3
8 | C1CCOC1 [tetrahydrofuran] + CCCCCCn1cc[n+](C)c1.F[B-](F)(F)F |  |  |  |  |  |  |  |  |  |  |  |  |  |  |  |  |  |  |  |  | refractive index ([3]; 298.15 K): 1.4042 ± 0.00039; refractive index ([3]; 308.15 K): 1.39885 ± 0.00039; refractive index ([3]; 318.15 K): 1.39349 ± 0.00039; speed of sound ([4]; 298.15 K): 1280.5 ± 1.4 m/s; mass density ([4]; 298.15 K): 882.209 ± 0.17 kg/m3; speed of sound ([4]; 308.15 K): 1232.5 ± 1.4 m/s; mass density ([4]; 308.15 K): 871.159 ± 0.17 kg/m3; speed of sound ([4]; 318.15 K): 1185.2 ± 1.4 m/s; mass density ([4]; 318.15 K): 859.955 ± 0.18 kg/m3
